Key:
[1] = biological target: T1, FBD35 (PfFKBP35 binding domain) (Plasmodium falciparum, UniProt Q8I4V8); test: Fluorescence polarization competition, FBD35
T1 construct: FKBP35 Q5 -A128; 6His-SUMO (N, cleaved yes); made in house; host or cells: E. coli BL21 DE3

FKBP12 [2] = biological target: T2, FKBP12 (Homo sapiens, UniProt P62942); test: Differential scanning calorimetry, FKBP12; type: binding; conditions: compound 40 µM
T2 construct: 6His-SUMO (N, cleaved yes); made in house; host or cells: E. coli (identical protocol to FBD35, BL21 DE3)
T2 sequence (P62942 whole entry): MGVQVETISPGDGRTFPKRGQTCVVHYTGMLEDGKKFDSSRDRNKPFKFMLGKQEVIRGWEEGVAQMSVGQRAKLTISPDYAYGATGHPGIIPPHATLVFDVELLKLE

nLuc-tagged FKBP12 = biological target: T3, nLuc-tagged FKBP12 (Homo sapiens, UniProt P62942); test: NanoBRET cellular target engagement, nLuc-FKBP12; type: cell-based
T3 construct: full length Plasmodium falciparum FKBP35 and human FKBP12 DNA were; expressed in transfected cells
T3 sequence (P62942 whole entry): as above

[3] = tested on: NF54 P. falciparum parasites; test: P. falciparum strain NF54 growth-inhibition assay; type: cell-based; conditions: Plasmodium falciparum; luciferase reporter NF54 line, 72 h
Procedure: Figure 6 P. falciparum strain NF54 growth-inhibition assay. […] Proliferation was measured by luminescence after a complete life-cycle and normalized to DMSO (100%) and chloroquine (100 nM, 0%). (B) Structural differences between synthetic ligands and compound IC50s (μM).
Substrate and Extracellular NanoLuc® Inhibitor (Promega, cat. N2160) were diluted at 1:166 and 1:500, respectively, in Opti -MEM I Reduced Serum Media. 25 µL of this solution was added to each well and plate was read immediately using an EnVision Multimode Plate Reader (PerkinElmer). The BRET ratio was calculated using the following formula:
BRET ratio = acceptorsample – acceptorno tracer control donorsample donorno tracer control
NanoBRET Target Engagement Assay (384-well)
HEK293T cells stably expressing either nLuc-FKBP12 or nLuc-FKBP35 were plated at 0.2×10^6 cells/mL in white, clear -bottom 384-well plates (Sigma Aldrich) in Opti -MEM I Reduced Serum Media (ThermoFisher Scientific) using a Mutidrop Combi Reagent Dispenser (ThermoFisher Scientific). Cells were incubated overnight at 37 °C, 5% CO 2. Using a Tecan D300e, the Rap-Gly-BDP tracer was added to cells to 1 µM. Plates were shaken at 700 RPM on an orbital plate shaker and incubated at 37 °C, 5% CO 2 for 10 minutes. Test compounds were added at the indicated concentrations using a Tecan D300e. Plates were shaken at 700 RPM on an orbital plate shaker and incubated at 37 °C, 5% CO 2 for 2 hours. NanoBRET Nano -Glo Substrate and Extracellular NanoLuc® Inhibitor (Promega, cat. N2160) were diluted at 1:166 and 1:500, respectively, in Opti-MEM I Reduced Serum Media. 10 µL of this solution was added to each well and plate was read immediately using an EnVision Multimode Plate Reader (PerkinElmer). The BRET ratio was calculated using the above formula.
Parasite Culture and Inhibition
NF54 P. falciparum parasites constitutively expressing Renilla luciferase (RLuc) and Blasticidin-S deaminase under the PfHsp86 5’ and PfHRP2 3‘ regulatory sequences integrated in the cg6 chromosomal locus 4 were maintained continuous ly in media consisting of human erythrocytes at 2% haematocrit (O+) resuspended in RPMI 1640 (Gibco® 31800022) supplemented with 5% Albumax (Gibco® 11021045; complete medium) and 2.5 µg/mL of Blasticidin (RPI Corp B12150-0.1) in a gas mixture consisting of 5% CO2, 1% O2, and 94% N2 at 37 °C (Trager and Jensen 2005).
Parasitemia was determined every 48 h through microscopic examination of thin blood smears fixed in methanol, stained with 10% Giemsa solution, and sub-cultured to 0.5-1% parasitaemia.
Compound susceptibility assays
(§1) In 96-well round-bottom plates, sorbitol -synchronized cultures of ring-stage NF54 P. falciparum parasites were established in triplicate and treated with varying concentrations of the inhibitors (25-0.0038 μM) serially diluted in complete medium. Parasite proliferation rates were analyzed after 72 h using the Renilla-Glo Luciferase Assay, and luminescence was measured using the GloMax® Discover Microplate Reader. EC 50 values were obtained from corrected dose-response curves using GraphPad Prism (version 5; GraphPad Software). Data represent the mean % luminescence relative to 5% DMSO-treated (vehicle, 100% growth) and 100 nM chloroquine-treated (no growth) controls.
(§2) In black, clear-bottom 96-well plates (No. 3904 Corning Life Sciences), HEK293T cells were plated at 2x10^5 cells/mL in DMEM high glucose, pyruvate media (ThermoFisher Scientific, cat. 11995073) supplemented with 10% FBS and 1% pen -strep (100 μL final volume). Cells were incubated overnight at 37°C, 5% CO2. Using a Tecan D300e digital dispenser, cells were dosed in triplicate […]
concentration, 100 mM stock in DMSO) and Carfilzomib (10 µM to 4.6 nM final concentration, 10 mM stock in DMSO) normalizing DMSO to 0.25%. Cells were then incubated at 37 °C, 5% CO2 for 72 hours. Following incubation, cells were treated with 70 µL CellTiter-Glo® Luminescent Cell […]

FKBP12 [4] = biological target: T2, FKBP12; test: Fluorescence polarization competition, FKBP12; type: binding
[5] = Plasma stability assay, mouse; type: in vitro ADME; conditions: percent remaining, 1 µM, 37 °C, 5 hours
Procedure: as §1, §2
(§3) concentration, 100 mM stock in DMSO) and Carfilzomib (10 µM to 4.6 nM final concentration, 10 mM stock in DMSO) normalizing DMSO to 0.25%. Cells were then incubated at 37 °C, 5% CO2 for 72 hours. Following incubation, cells were treated with 70 µL CellTiter-Glo® Luminescent Cell Viability Assay Reagent (Promega, cat. G7570) and incubated in the dark at room temperature for 30 minutes. Plates were read using an EnVision Multimode Plate Reader (PerkinElmer). Cell viability data was normalized to DMSO controls and analyzed in GraphPad Prism 8 by fitting the data to “[Inhibitor] vs. normalized response – variable slope” model to obtain the curves.
(§4) Each compound was prepared in duplicate at 1 µM final concentration (0.2% DMSO) in human or mouse plasma (Aldrich). Samples were incubated at 37 °C for 5 hours with mixing at 350 rpm on an orbital shaker. Aliquots of each sample were taken at time zero and following 5 hours. Each sample was quenched by adding acetonitrile in a 3:1 ratio and further diluting with 50 µl of PBS.
(§5) After quenching, samples were centrifuged to pellet precipitated partic ulates and an aliquot of supernatant was diluted 1:1 with water. The resulting solution was analyzed by UPLC -MS/MS with compounds detected by MRM detection on a triple quadrupole mass spectrometer. The ratio of compound peak areas at 0 and 5 hours were use d to calculate the percent remaining.

[6] = Plasma stability assay, human; type: in vitro ADME; conditions: percent remaining, 1 µM, 37 °C, 5 hours
Procedure: as §1, §2, §3, §4, §5

[7] = biological target: T1, FBD35 (PfFKBP35 binding domain); test: Differential scanning calorimetry, FBD35; conditions: read-out: FBD35 ΔTM

T1 sequence (Q8I4V8 5-128): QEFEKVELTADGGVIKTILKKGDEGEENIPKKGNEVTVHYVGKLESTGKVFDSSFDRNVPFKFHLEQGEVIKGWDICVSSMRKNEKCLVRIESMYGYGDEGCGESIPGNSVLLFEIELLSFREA

Structure (SMILES) | IC50 [1] | ΔTm at 40 µM (FKBP12 [2]) | IC50 (nLuc-tagged FKBP12) | IC50 [3] | IC50 (FKBP12 [4]) | Plasma Stability (mouse) [5] | Plasma Stability (human) [6] | ΔTm at 40 µM [7] | fold weaker binding by FP ([1]; acrylamide moved to ortho position, compared with 1a)
CCC(=O)Nc1cccc([C@@H](CCc2ccc(OC)c(OC)c2)OC(=O)[C@@H]2CCCCN2C(=O)C(=O)C(C)(C)CC)c1 [1b] | 76 nM | 6.8 °C | 313 nM | 1900 nM | 58 nM | 18% | 90% | 2.8 °C | 
C=CC(=O)OCC(C)(C)C(=O)C(=O)N1CCCC[C@H]1C(=O)O[C@H](CCc1ccc(OC)c(OC)c1)c1ccccc1 [2c] | 559 nM | 5.2 °C | 601 nM | 13000 nM | 166 nM | 0% | 0% | 14.5 °C | 
C=CC(=O)Nc1cccc([C@@H](CCc2ccc(OC)c(OC)c2)OC(=O)[C@@H]2CCCCN2C(=O)C(=O)C(C)(C)CC)c1 [1a] | 206 nM | 5.6 °C | 481 nM | 1400 nM | 132 nM | 48% | 92% | 13.4 °C | 
C=CC(=O)Nc1ccccc1[C@@H](CCc1ccc(OC)c(OC)c1)OC(=O)[C@@H]1CCCCN1C(=O)C(=O)C(C)(C)CC [1c] | 2850 nM | 3.2 °C |  | 1900 nM | 423 nM | 31% | 62% | 9.6 °C | > 10 fold

— paper PMC7667655, “Targeted Covalent Inhibition of Plasmodium FK506 Binding Protein 35” (ACS Medicinal Chemistry Letters, 2020)
